Test results as given in EPA's ToxRefDB 2.

Key:
[1] = tested on: mouse; settings: Subchronic oral toxicity in rodents, cd1, Feed, dose end: 13 week, group: systemic, systemic / clinical chemistry / alkaline phosphatase (alp/alk) / alkaline phosphatase (alp/alk) + systemic / in life observation / clinical …
[2] = tested on: mouse; settings: Subchronic oral toxicity in rodents, cd1, Feed, dose end: 6 week, group: systemic, systemic / in life observation / body weight / body weight gain + systemic / organ weight / liver / absolute + systemic / organ weight / …
[3] = tested on: dog; settings: Chronic toxicity, beagle, Oral, Feed, dose end: 12 month, group: systemic
[4] = tested on: rat; settings: Multigenerational reproductive toxicity study, sprague dawley, Oral, Feed, dose end: 2 generation
[5] = tested on: rat; settings: Subchronic oral toxicity in rodents, sprague dawley, Feed, dose end: 13 week, group: systemic
[6] = tested on: mouse; settings: Carcinogenicity, cd1, Oral, Feed, dose end: 18 month, group: systemic
[7] = tested on: dog; settings: Subchronic oral toxicity in nonrodent, beagle, Feed, dose end: 6 week, group: systemic, systemic / in life observation / body weight / body weight gain + systemic / clinical chemistry / alanine aminotransferase (alt/sgpt) / …
[8] = systemic / clinical chemistry / alanine aminotransferase (alt/sgpt) / alanine aminotransferase (alt/sgpt) + systemic / clinical chemistry / …
[9] = systemic / in life observation / clinical signs / moribundity
[10] = group: offspring, systemic / in life observation / body weight / offspring (pup) weight
[11] = group: offspring, systemic / in life observation / body weight / offspring (pup) weight + systemic / organ weight / liver / relative to body weight
[12] = group: parental, systemic / in life observation / body weight / body weight
[13] = systemic / clinical chemistry / albumin-globulin ratio / albumin-globulin ratio + systemic / organ weight / liver / relative to body weight
[14] = systemic / in life observation / body weight / body weight + systemic / in life observation / body weight / body weight gain + systemic / in…
[15] = systemic / in life observation / body weight / body weight + systemic / in life observation / body weight / body weight gain

O=C(O)C1(C(=O)Nc2ccc(Cl)cc2Cl)CC1 [Cyclanilide]
LEL [1]: 364 mg/kg/day | LOAEL [1]: 364 mg/kg/day | NEL [1]: 38 mg/kg/day | NOAEL [1]: 38 mg/kg/day | LEL [2]: 552 mg/kg/day | LOAEL [2]: 552 mg/kg/day | NEL [2]: 192 mg/kg/day | NOAEL [2]: 192 mg/kg/day | LOAEL [3, 8]: 21.2 mg/kg/day | NOAEL [3, 8]: 5.3 mg/kg/day | LEL [3, 9]: 1.3 mg/kg/day | NEL [3, 9]: < 1.3 mg/kg/day | LEL [4, 10]: 20.2 mg/kg/day | LOAEL [4, 10]: 20.2 mg/kg/day | NEL [4, 11]: 2 mg/kg/day | NOAEL [4, 11]: 2 mg/kg/day | LEL [4, 12]: 2 mg/kg/day | LOAEL [4, 12]: 2 mg/kg/day | NEL [4, 12]: < 2 mg/kg/day | NOAEL [4, 12]: < 2 mg/kg/day | LEL [5, 13]: 32.1 mg/kg/day | NEL [5, 13]: < 32.1 mg/kg/day | LOAEL [5, 14]: 113 mg/kg/day | NOAEL [5, 14]: 54.6 mg/kg/day | LEL [6, 15]: 8.41 mg/kg/day | LOAEL [6, 15]: 168 mg/kg/day | NEL [6, 15]: < 8.41 mg/kg/day | NOAEL ([6]; systemic / in life observation / body weight / body weight + systemic / in life observation / body weight / body weight gain + systemic / …): 41.8 mg/kg/day | LOAEL [7]: > 20 mg/kg/day | NOAEL [7]: ≥ 20 mg/kg/day
